Results from patent publication US20260256807A1, “SUBSTITUTED PYRAZOLES AND IMIDAZOLES AS OREXIN RECEPTOR ANTAGONISTS COMPOSITION, METHODS FOR TREATING NEUROLOGICAL AND PSYCHOLOGICAL DISORDERS” (HAGER BIOSCIENCES, LLC, priority 2022, published 2026).

Assays:
[1] = target: T1, human orexin-1 receptor (Homo sapiens, UniProt O43613); assay: Intracellular calcium (FLIPR) antagonist assay, CHO cells expressing human orexin-1 receptor, 3 nM orexin-A; assay type: cell-based; conditions: 1 uM compound, orexin-A 3 nM; for inhibition at 1 µM: CHO, read-out: OXIR % Inh. @ 1 uM
T1 construct: expressed in transfected cells; host or cells: CHO cells (G418 selection)
T1 sequence (O43613 1-425): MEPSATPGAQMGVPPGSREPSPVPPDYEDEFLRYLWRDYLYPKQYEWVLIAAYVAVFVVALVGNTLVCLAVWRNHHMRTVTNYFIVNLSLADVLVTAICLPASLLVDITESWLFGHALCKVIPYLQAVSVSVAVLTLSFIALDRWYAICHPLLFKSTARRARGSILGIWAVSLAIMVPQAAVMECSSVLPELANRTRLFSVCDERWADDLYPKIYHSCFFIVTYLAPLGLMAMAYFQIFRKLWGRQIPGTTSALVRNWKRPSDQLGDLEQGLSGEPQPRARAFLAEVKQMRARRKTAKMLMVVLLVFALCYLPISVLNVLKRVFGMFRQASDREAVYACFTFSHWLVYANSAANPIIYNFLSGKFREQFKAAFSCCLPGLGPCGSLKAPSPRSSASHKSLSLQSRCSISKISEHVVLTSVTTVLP
Experimental: (§1) Antagonistic activities on both orexin receptors (i.e., to identify Orexin Receptor Antagonists) have been measured for each example compound using the in vitro assays (intracellular calcium measurements) as described herein. Other assays may also be used to identify Orexin Receptor Antagonists as would be understood by those of ordinary skill in the art. Chinese hamster ovary (CHO) cells expressing the human orexin-1 receptor and the human orexin-2 receptor, respectively, are grown in culture medium (Ham F-12 with L-Glutamine) containing 300 μg/mL G418, 100 U/mL penicillin, 100 μg/mL streptomycin and 10% heat inactivated fetal calf serum (FCS). The cells are seeded at 20′000 cells/well into 384-well black clear bottom sterile plates (Greiner). The seeded plates are incubated overnight at 37° C. in 5% CO2. Human orexin-A as an agonist is prepared as 1 mM stock solution in MeOH: water (1:1), diluted in HBSS containing 0.1% bovine serum albumin (BSA), NaHC03: 0.375 g/L and 20 mM HEPES for use in the assay at a final concentration of 3 nM.
(§2) Antagonists were prepared as 10 mM stock solution in DMSO, then diluted in 384-well plates using DMSO followed by a transfer of the dilutions into in HBSS containing 0.1% bovine serum albumin (BSA), NaHC03: 0.375 g/L and 20 mM HEPES. On the day of the assay, 50 μL of staining buffer (HBSS containing 1% FCS, 20 mM HEPES, NaHC03: 0.375 g/L, 5 mM probenecid (Sigma) and 3 μM of the fluorescent calcium indicator fluro-4 AM (1 mM stock solution in DMSO, containing 10% pluronic) is added to each well. The 384-well cell-plates are incubated for 50 min at 37° C. in 5% C02 followed by equilibration at RT for 30 min before measurement. Within the Fluorescent Imaging Plate Reader (FLIPR Tetra, Molecular Devices), potential Orexin Receptor Antagonists were added to the plate in a volume of 10 μl/well, incubated for 120 min and finally 10 μL/well of agonist is added. Fluorescence was measured for each well at 1 second intervals, and the height of each fluorescence peak compared to the height of the fluorescence peak induced by 3 nM orexin-A with vehicle in place of antagonist. The IC50 value (the concentration of compound needed to inhibit 50% of the agonistic response) was determined and normalized using the obtained IC50 value of an on-plate reference compound. Optimized conditions were achieved by adjustment of pipetting speed and cell splitting regime. The calculated IC50 values fluctuate depending on the daily cellular assay performance, as is known to those skilled in the art. In the case where IC50 values have been determined several times for the same compound, the geometric mean has been given.

[2] = target: T2, human orexin-2 receptor (Homo sapiens, UniProt O43614); assay: Intracellular calcium (FLIPR) antagonist assay, CHO cells expressing human orexin-2 receptor, 3 nM orexin-A; assay type: cell-based; conditions: 1 uM compound, orexin-A 3 nM; for inhibition at 1 µM: CHO, read-out: OX2R % Inh. @ 1uM
T2 construct: expressed in transfected cells; host or cells: CHO cells (G418 selection)
T2 sequence (O43614 1-444): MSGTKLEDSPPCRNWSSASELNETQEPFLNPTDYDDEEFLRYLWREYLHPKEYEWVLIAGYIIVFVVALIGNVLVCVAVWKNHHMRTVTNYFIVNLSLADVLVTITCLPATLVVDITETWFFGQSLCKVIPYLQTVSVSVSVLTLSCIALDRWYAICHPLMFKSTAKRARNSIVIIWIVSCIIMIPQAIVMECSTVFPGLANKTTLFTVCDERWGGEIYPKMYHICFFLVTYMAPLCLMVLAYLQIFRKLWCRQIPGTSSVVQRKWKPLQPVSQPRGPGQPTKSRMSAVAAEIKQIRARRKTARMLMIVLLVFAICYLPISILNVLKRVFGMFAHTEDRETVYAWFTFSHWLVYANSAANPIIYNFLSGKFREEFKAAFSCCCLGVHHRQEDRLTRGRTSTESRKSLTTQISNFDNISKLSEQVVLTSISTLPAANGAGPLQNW
Experimental: as §1, §2

SMILES	OXIR % Inh. @ 1 uM [1] [%]	inhibition at 1 µM [2] [%]	inhibition at 1 µM [1] [%]	OX2R % Inh. @ 1uM [2] [%]
COc1ccc(N2CC[C@@H](C)N(C(=O)c3c(-c4ccccn4)nn4ccccc34)CC2)nc1 [Example 81]	76	47		
C[C@@H]1CCN(c2cnc(C(F)(F)F)cn2)CCN1C(=O)c1nn2c(c1-c1ccccc1)COCC2 [Example 82]		2	39	
C[C@@H]1CCN(c2cnc(C(F)(F)F)cn2)CCN1C(=O)c1nc2ccccn2c1-c1ccccc1 [Example 83]		27	69	
C[C@@H]1CCN(c2cnc(C(F)(F)F)cn2)CCN1C(=O)c1nn2c(c1-c1ccccc1)OCCC2 [Example 84]		27	71	
C[C@@H]1CCN(c2cnc(C(F)(F)F)cn2)CCN1C(=O)c1nn2cccnc2c1-c1ccccc1 [Example 85]		52	93	
C[C@@H]1CCN(c2cnc(C(F)(F)F)cn2)CCN1C(=O)c1nn2ccccc2c1-c1ccccc1 [Example 86]		63	89	
C[C@@H]1CCN(c2cnc(C(F)(F)F)cn2)CCN1C(=O)c1c(-c2ccccn2)nn2ccccc12 [Example 87]		57	83	
C[C@@H]1CCN(c2cnc(C(F)(F)F)cn2)CCN1C(=O)c1c(-c2ncccn2)nn2ccccc12 [Example 88]		29	51	
C[C@@H]1CCN(c2cnc(C(F)(F)F)cn2)CCN1C(=O)c1c(-c2ccccc2)nn2c1COCC2 [Example 89]		10	25	
C[C@@H]1CCN(c2cnc(C(F)(F)F)cn2)CCN1C(=O)c1c(-c2ccccc2)nn2ccccc12 [Example 90]		80	95	
C[C@@H]1CN(c2cnc(C(F)(F)F)cn2)CCCN1C(=O)c1c(-c2ccccc2)nn2cccnc12 [Example 91]		74	87	
COc1ccc(N2CC[C@@H](C)N(C(=O)c3c(-c4ncccn4)nn4ccccc34)CC2)nc1 [Example 92]		13	25	
COc1ccc(N2CC[C@@H](C)N(C(=O)c3c(-c4ccccn4)nn4ccccc34)CC2)nc1 [Example 93]	36			33
C[C@@H]1CCN(c2cnc(C(F)(F)F)cn2)CCN1C(=O)c1c(-c2ncccn2)nn2ccccc12 [Example 94]	43			21
C[C@@H]1CCN(c2cnc(C(F)(F)F)cn2)CCN1C(=O)c1c(-c2ccccn2)nn2ccccc12 [Example 95]	86			61
C[C@@H]1CCN(c2nc3cc(Cl)ccc3o2)CCN1C(=O)c1nn2cccnc2c1-c1ccccn1 [Example 96]		71	100	
C[C@@H]1CCN(c2ccc(C(F)(F)F)cn2)CCN1C(=O)c1nn2cccnc2c1-c1ccccn1 [Example 97]		51	98	
C[C@@H]1CCN(c2cnc(C(F)(F)F)cn2)CCN1C(=O)c1nn2cccnc2c1-c1ccccn1 [Example 98]		26	57	
Cc1cc(C)nc(N2CC[C@@H](C)N(C(=O)c3nn4cccnc4c3-c3ccccn3)CC2)n1 [Example 99]		56	45	
C[C@@H]1CCN(c2nc3cc(Cl)ccc3o2)CCN1C(=O)c1ccnn1-c1ccccc1 [Example 100]		57	54	
C[C@@H]1CCN(c2ccc(C(F)(F)F)cn2)CCN1C(=O)c1ccnn1-c1ccccc1 [Example 101]		32	19	
